The subject of experiment [1] is HCV GT1a(H77) replicon. Nature of the experiment: HCV replicon luciferase reporter assay, genotype 1a. Type of experiment: cell-based, HCV genotype 1a. Particulars: Hepatitis C virus, 72 h, HUH-7 cells, 3 days incubation. An excerpt:
A stable HCV GT1a(H77) replicon luciferase reporter cell line (Yanagi M, Purcell R H, Emerson S U, et al. Transcripts from a single full-length cDNA clone of hepatitis C virus are infectious when directly transfected into the liver of a chimpanzee. Proc Natl Acad Sci USA 1997; 94(16):8738-8743) was generated as described previously for the genotype 1b(Con1) replicon luciferase cell line. The replicon construct was modified by introducing mutations into the genes encoding the NS3 helicase domain (proline replaced by leucine at position 1496) and NS5A (serine to isoleucine at position 2204) to improve replication in cell culture.
(§1) HCV replicon luciferase assays were developed to monitor the inhibitory effects of compounds described in the disclosure on HCV genotypes 1a and 1b viral replication. HUH-7 cells, constitutively expressing the HCV replicon, were grown in Dulbecco's Modified Eagle Media (DMEM) (Gibco-BRL) containing 10% Fetal calf serum (FCS) (Sigma) and 1 mg/mL G418 (Gibco-BRL). Compounds were serially diluted 3 folds in DMSO for a twenty-point titration and subsequently transferred to sterile 384-well tissue-culture treated plates (Corning cat #3571). The plates were then seeded with 50 μL of cells at a density of 3.0×10^3 cells/well in DMEM containing 4% FCS (final DMSO concentration at 0.5%). After 3 days incubation at 37° C., cells were analyzed for Renilla Luciferase activity using the EnduRen as substrate (Promega cat #E6485). The EnduRen substrate was diluted in DMEM and then added to the plates to a final concentration of 7.5 μM. The plates were incubated for 2 hrs at 37° C. and then read immediately for 30 seconds with Viewlux Imager (PerkinElmer) using a luminescence program. To assess cytotoxicity of compounds, CC50 values were generated by multiplexing the EnduRen-containing plates with Cell Titer-Blue (Promega, cat # G8082). Cell-Titer Blue (3 μL) was added to each well and incubated for 8 hrs at 37° C. The fluorescence signal from each well was read, with an excitation wavelength at 525/10 nm and an emission wavelength of 598/10 nm, using the Viewlux Imager.
(§2) The EC50 values for compounds were calculated by using a four-parameter logistic equation: y=A+((B−A)/(1+((C/x)^D))), where A and B denotes minimal and maximal % inhibition, respectively, C is the EC50, D is the hill slope and x represents compound concentration.

The test system of experiment [2] is HCV GT1b(Con1) replicon. Nature of the experiment: HCV replicon luciferase reporter assay, genotype 1b. Conditions: Hepatitis C virus, 72 h, HUH-7 cells, 3 days incubation. The class given is cell-based, HCV genotype 1b.
Excerpt: An HCV GT1b(Con1) replicon cell system was established as described by Lohmann V, Korner F, Koch J, Herian U, Theilmann L, Bartenschlager R., Science 285(5424):110-3 (1999) and modified to introduce a luciferase reporter (Krieger N, Lohmann V, and Bartenschlager R, J. Virol. 75(10):4614-4624 (2001)). cDNA encoding a humanized form of the Renilla luciferase gene, and a linker sequence fused directly to the 3′-end of the luciferase gene were introduced into the replicon construct using an Asc1 restriction site located in core, directly upstream of the neomycin marker gene. The adaptive mutation at position 1179 (serine to isoleucine) was also introduced (Blight K J, Kolykhalov, A A, Rice, C M, Science 290(5498):1972-1974). A stable cell line constitutively expressing this HCV replicon construct was generated by first linearizing plasmid DNAs with ScaI. RNA transcripts were synthesized in vitro using the T7 MegaScript transcription kit (Ambion, Austin, Tex.) according to manufacturer's directions. In vitro transcripts of the cDNA were transfected into the human hepatoma cell line, HUH-7. […] Resulting cell lines were characterized for positive and negative strand RNA production and protein production over time.
as §1, §2

Like-named read-outs stand apart in the source and are kept apart here.

Take `C[C@@H]1CC/C=C\[C@@H]2C[C@@]2(C(=O)NS(=O)(=O)C2(C)CC2)NC(=O)[C@@H]2C[C@@H](OC(=O)Nc3ccccc3C(F)(F)F)CN2C(=O)[C@@H](NC(=O)OC(C)(C)C)[C@H](C)C1` [Compound 1302]: the EC50 in experiment [1] (read-out: LE_1a (EC50, range)) lay within 5.01 to 35 nM; in experiment [2] (read-out: LE_1b (EC50, range)), 1.01 to 5 nM.

`C[C@@H]1CC/C=C\[C@@H]2C[C@@]2(C(=O)NS(=O)(=O)C2(C)CC2)NC(=O)[C@@H]2C[C@@H](OC(=O)Nc3ccc(F)cc3)CN2C(=O)[C@@H](NC(=O)OC(C)(C)C)[C@H](C)C1` [Compound 1304]: the EC50 is 62.5 nM in experiment [1] (read-out: LE_1a (EC50)); 35 to 62.5 nM in experiment [1] (read-out: LE_1a (EC50, range)); 20.6 nM in experiment [2] (read-out: LE_1b (EC50)); 5.01 to 35 nM in experiment [2] (read-out: LE_1b (EC50, range)).

In the case of `Cc1cc(C)c(NC(=O)O[C@@H]2C[C@H]3C(=O)N[C@]4(C(=O)NS(=O)(=O)C5(C)CC5)C[C@H]4/C=C\CC[C@@H](C)C[C@@H](C)[C@H](NC(=O)OC(C)(C)C)C(=O)N3C2)c(Cl)c1` [Compound 1306], the EC50 in experiment [1] (read-out: LE_1a (EC50, range)) lay in the range of 5.01 to 35 nM; in experiment [2] (read-out: LE_1b (EC50, range)), 5.01 to 35 nM.

Regarding `C[C@@H]1CC/C=C\[C@@H]2C[C@@]2(C(=O)NS(=O)(=O)C2(C)CC2)NC(=O)[C@@H]2C[C@@H](OC(=O)Nc3ccccc3C(F)(F)F)CN2C(=O)[C@@H](NC(=O)OC(C)(C)C(F)(F)F)[C@H](C)C1` [Compound 1307], the EC50 in experiment [1] (read-out: LE_1a (EC50, range)) fell in the range of 1.01 to 5 nM; in experiment [2] (read-out: LE_1b (EC50, range)), 1.01 to 5 nM.

With `C[C@@H]1CC/C=C\[C@@H]2C[C@@]2(C(=O)NS(=O)(=O)C2(C)CC2)NC(=O)[C@@H]2C[C@@H](OC(=O)Nc3ccc(F)cc3)CN2C(=O)[C@@H](NC(=O)OC(C)(C)C(F)(F)F)[C@H](C)C1` [Compound 1309], the EC50 in experiment [1] (read-out: LE_1a (EC50, range)) lay within 35 to 62.5 nM; in experiment [2] (read-out: LE_1b (EC50, range)) it was 5.01 to 35 nM.

`Cc1cc(C)c(NC(=O)O[C@@H]2C[C@H]3C(=O)N[C@]4(C(=O)NS(=O)(=O)C5(C)CC5)C[C@H]4/C=C\CC[C@@H](C)C[C@@H](C)[C@H](NC(=O)OC(C)(C)C(F)(F)F)C(=O)N3C2)c(Cl)c1` [Compound 1311]: the EC50 in experiment [1] (read-out: LE_1a (EC50, range)) fell in the range of 35 to 62.5 nM; in experiment [2] (read-out: LE_1b (EC50, range)), 5.01 to 35 nM.

With `CC[C@@H]1C[C@@H](C)CC/C=C\[C@@H]2C[C@@]2(C(=O)NS(=O)(=O)C2(C)CC2)NC(=O)[C@@H]2C[C@@H](OC(=O)N3Cc4cccc(F)c4C3)CN2C(=O)[C@H]1NC(=O)OC(C)(C)C` [Compound 1312, (2R,6S,7R,9S,13aS,14aR,16aS,Z)-6-((tert-butoxycarbonyl)amino)-7-ethyl-9-methyl-14a-(((1-methylcyclopropyl)sulfonyl)carbamoyl)-5,16-dioxo-1,2,3,5,6,7,8,9,10,11,13a,14,14a,15,16,16a-hexadecahydrocyclopropa[e]pyrrolo[1,2-a][1,4]diazacyclopentadecin-2-yl 4-fluoroisoindoline-2-carboxylate], the concentration giving a half-maximal response (EC50) in experiment [1] (read-out: LE_1a (EC50, range)) was 5.01 to 35 nM; in experiment [2] (read-out: LE_1b (EC50, range)), 1.01 to 5 nM.

As for `CC[C@@H]1C[C@H](C)CC/C=C\[C@@H]2C[C@@]2(C(=O)NS(=O)(=O)C2(C)CC2)NC(=O)[C@@H]2C[C@@H](OC(=O)N3Cc4cccc(F)c4C3)CN2C(=O)[C@H]1NC(=O)OC(C)(C)C` [Compound 1313, (2R,6S,7R,9R,13aS,14aR,16aS,Z)-6-((tert-butoxycarbonyl)amino)-7-ethyl-9-methyl-14a-(((1-methylcyclopropyl)sulfonyl)carbamoyl)-5,16-dioxo-1,2,3,5,6,7,8,9,10,11,13a,14,14a,15,16,16a-hexadecahydrocyclopropa[e]pyrrolo[1,2-a][1,4]diazacyclopentadecin-2-yl 4-fluoroisoindoline-2-carboxylate], the concentration for a half-maximal effect (EC50) in experiment [1] (read-out: LE_1a (EC50, range)) lay in the range of 1.01 to 5 nM; in experiment [2] (read-out: LE_1b (EC50, range)), 1.01 to 5 nM.

As to `C[C@H]1CC/C=C\[C@@H]2C[C@@]2(C(=O)NS(=O)(=O)C2(C)CC2)NC(=O)[C@@H]2C[C@@H](OC(=O)N3Cc4cccc(F)c4C3)CN2C(=O)[C@@H](NC(=O)OC(C)(C)C)[C@H](C)C1` [Compound 1314, (2R,6S,7R,9S,13aS,14aR,16aS,Z)-6-((tert-butoxycarbonyl)amino)-7,9-dimethyl-14a-(((1-methylcyclopropyl)sulfonyl)carbamoyl)-5,16-dioxo-1,2,3,5,6,7,8,9,10,11,13a,14,14a,15,16,16a-hexadecahydrocyclopropa[e]pyrrolo[1,2-a][1,4]diazacyclopentadecin-2-yl 4-fluoroisoindoline-2-carboxylate], the EC50 lay in the range of 5.01 to 35 nM in experiment [1] (read-out: LE_1a (EC50, range)) and 1.01 to 5 nM in experiment [2] (read-out: LE_1b (EC50, range)).

Turning to `C[C@@H]1CC/C=C\[C@@H]2C[C@@]2(C(=O)NS(=O)(=O)C2(C)CC2)NC(=O)[C@@H]2C[C@@H](OC(=O)N3Cc4cccc(F)c4C3)CN2C(=O)[C@@H](NC(=O)OC(C)(C)C)[C@H](C)C1` [Compound 1315, (2R,6S,7R,9R,13aS,14aR,16aS,Z)-6-((tert-butoxycarbonyl)amino)-7,9-dimethyl-14a-(((1-methylcyclopropyl)sulfonyl)carbamoyl)-5,16-dioxo-1,2,3,5,6,7,8,9,10,11,13a,14,14a,15,16,16a-hexadecahydrocyclopropa[e]pyrrolo[1,2-a][1,4]diazacyclopentadecin-2-yl 4-fluoroisoindoline-2-carboxylate], the EC50 is 0.96 nM in experiment [1] (read-out: LE_1a (EC50)); 0.51 to 1 nM in experiment [1] (read-out: LE_1a (EC50, range)); 0.33 nM in experiment [2] (read-out: LE_1b (EC50)); 0.1 to 0.5 nM in experiment [2] (read-out: LE_1b (EC50, range)).

The values above are taken from patent publication US9409943B2 (Bristol-Myers Squibb Company, priority 2012, dated 2016).
